According to ChEMBL document CHEMBL5550218, “Structural Insights into Protein-Inhibitor Interactions in Human Tryptophan Dioxygenase” (J Med Chem, 2024):

Target: Tryptophan 2,3-dioxygenase (Homo sapiens, UniProt P48775)
Sequence (P48775 whole entry): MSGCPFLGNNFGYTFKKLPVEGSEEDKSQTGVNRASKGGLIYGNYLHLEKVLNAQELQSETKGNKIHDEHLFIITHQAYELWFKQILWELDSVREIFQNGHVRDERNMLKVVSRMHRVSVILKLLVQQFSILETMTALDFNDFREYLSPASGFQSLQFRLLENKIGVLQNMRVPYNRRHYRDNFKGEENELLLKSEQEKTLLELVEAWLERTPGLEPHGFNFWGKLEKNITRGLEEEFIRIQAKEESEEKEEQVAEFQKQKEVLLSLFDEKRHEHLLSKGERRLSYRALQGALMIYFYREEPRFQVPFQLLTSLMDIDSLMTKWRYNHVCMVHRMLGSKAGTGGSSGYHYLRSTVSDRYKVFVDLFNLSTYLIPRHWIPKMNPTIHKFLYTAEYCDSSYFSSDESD

## O=C1CC(c2c[nH]c3ccc(F)cc23)C(=O)N1 (stereo unspecified) [PF-06840003]
  IC50: 424 µM
